According to US5430026A, “2'-deoxy-2',2'-difluoro (4-substituted pyrimidine) nucleosides, bicyclic derivatives,pharmaceutical compositions, and synthetic precursors” (Eli Lilly and Company, priority 1993, dated 1995):
Converted amounts (≈) assume the structure as drawn.

How the values were obtained:
[1] = test system: human leukemia cells (CCRF-CEM cell line); test: growth inhibition (cytotoxicity) of human leukemia cells, Table 1; type: cell-based; conditions: IC50 less than 20 μg/ml is considered active; for IC50: Homo sapiens, read-out: IC50 (concentration giving 50 percent growth inhibition)
Source text: 38, 2886 (1978). The representative compounds of formula I employed in the present invention are cytotoxic as They inhibit the growth of rapidly dividing human leukemia cells (CCRF-CEM cell line). Table 1 below gives the results of testing several compounds representative of formula I. In Table 1, Column 1 gives the representative compound and Column 2 gives the IC50 (concentration giving 50 percent growth inhibition) in μg/ml.

[2] = test system: HSV-1; test: plaque inhibition of HSV-1 in African green monkey kidney cells (BSC-1), Table 2; type: cell-based, Herpes simplex virus, type I; conditions: 72 hours at 37° C., IC50 less than 20 μg/ml is considered active; for IC50: Human alphaherpesvirus 1, BSC-1 cells, read-out: HSV-1 IC50 (concentration giving 50 percent growth inhibition; plaque inhibition)
[3] = test system: HSV-2; test: plaque inhibition of HSV-2 in African green monkey kidney cells (BSC-1), Table 2; type: cell-based, Herpes simplex virus, type II; conditions: 72 hours at 37° C., IC50 less than 20 μg/ml is considered active; for IC50: Human alphaherpesvirus 2, BSC-1 cells, read-out: HSV-2 IC50 (concentration giving 50 percent growth inhibition; plaque inhibition)

IC50 [2] | IC50 [3] | HSV-1 IC50 (concentration giving 50 percent growth inhibition; plaque inhibition) ([2]; BSC-1 cells) | HSV-2 IC50 (concentration giving 50 percent growth inhibition; plaque inhibition) ([3]; BSC-1 cells) | SMILES | IC50 [1] | IC50 (concentration giving 50 percent growth inhibition) [1]
8 µg/mL (≈ 27.7 µM) | 9.25 µg/mL (≈ 32 µM) | – | – | O=c1n([C@@H]2O[C@H](CO)[C@@H](O)C2(F)F)ccc2nnnn12 [Example 2, 6-(2-deoxy-2,2-difluoro-β-D-ribofuranosyl)-1,2,3,4-tetrazolo[1,5-c]pyrimidine-5(6H) -one] | 0.5 µg/mL (≈ 1.73 µM) | –
0.53 µg/mL (≈ 1.58 µM) | 0.58 µg/mL (≈ 1.73 µM) | – | – | CCOC(=O)Nc1ccn([C@@H]2O[C@H](CO)[C@@H](O)C2(F)F)c(=O)n1 [Example 6, β-1-(2-Oxo-4-aminocarboethoxy-1,2-dihydropyrimidin-1-yl)-2-deoxy-2,2-difluororibose] | 0.051 µg/mL (≈ 0.152 µM) | –
– | – | – | – | O=C(O)CNc1ccn([C@@H]2O[C@H](CO)[C@@H](O)C2(F)F)c(=O)n1 [Example 9, β-1-(2-Oxo-4-N-glycinyl-1,2-dihydropyrimidin-1yl)-2-deoxy-2,2-difluororibose] | 0.4 µg/mL (≈ 1.25 µM) | –
– | – | 18.0 µg/mL | 11.1 µg/mL | O=c1nc(NCO)ccn1[C@@H]1O[C@H](CO)[C@@H](O)C1(F)F [Example 7, β-1-(2-Oxo-4-hydroxymethylamino-1,2-dihydropyrimidin-1-yl)-2-deoxy-2,2-difluororibose] | – | 0.3 µg/mL (≈ 1.02 µM)
6 µg/mL (≈ 19.7 µM) | 4.9 µg/mL (≈ 16.1 µM) | – | – | O=c1[nH]nc2ccn([C@@H]3O[C@H](CO)[C@@H](O)C3(F)F)c(=O)n12 [Example 4, 6-(2-deoxy-2,2-difluoro-β-D-ribofuranosyl)-1,2,4-triazolo[4,3c]pyrimidine-3,5(2H,6H)-dione] | 0.2 µg/mL (≈ 0.657 µM) | –
– | – | – | – | CCOC(=O)C(C)Nc1ccn([C@@H]2O[C@H](CO)[C@@H](O)C2(F)F)c(=O)n1 (stereo partly drawn) [Example 11, β-1-(2-oxo-4-N-alanineethyl ester-1,2-dihydropyrimidin-1-yl)-2-deoxy-2,2-difluororibose] | – | 6.3 µg/mL (≈ 17.3 µM)
– | – | – | – | CCOC(=O)CNc1ccn([C@@H]2O[C@H](CO)[C@@H](O)C2(F)F)c(=O)n1 [Example 8, β-1-(2-Oxo-4-N-glycineethyl ester-1,2-dihydropyrimidin-1-yl)-2-deoxy-2,2-difluororibose] | 18.4 µg/mL (≈ 52.7 µM) | –
0.7 µg/mL (≈ 2.51 µM) | 1.07 µg/mL (≈ 3.83 µM) | – | – | O=c1nc(NO)ccn1[C@@H]1O[C@H](CO)[C@@H](O)C1(F)F [Example 1, β-1-(2-Oxo-4-hydroxyamino-1,2-dihydropyrimidin-1-yl)-2-deoxy-2,2-difluororibose] | 0.086 µg/mL (≈ 0.308 µM) | –
3.12 µg/mL (≈ 11.2 µM) | 4.35 µg/mL (≈ 15.6 µM) | – | – | NNc1ccn([C@@H]2O[C@H](CO)[C@@H](O)C2(F)F)c(=O)n1 [Example 5, β-1-(2-Oxo-4-hydrazino-1,2-dihydropyrimidin-1-yl)-2-deoxy-2,2-difluororibose] | 0.077 µg/mL (≈ 0.277 µM) | –
– | – | – | – | CNNc1ccn([C@@H]2O[C@H](CO)[C@@H](O)C2(F)F)c(=O)n1 [Example 10, β-1-[2-Oxo-4-(2-methylhydrazino)-1,2-dihydropyrimidin-1-yl]-2-deoxy-2,2-difluororibose] | 4.1 µg/mL (≈ 14 µM) | –
